From PMC5038320, “Cryptosporidium and Toxoplasma Parasites Are Inhibited by a Benzoxaborole Targeting Leucyl-tRNA Synthetase” (Antimicrobial Agents and Chemotherapy, 2016)
Read-outs that look alike come from different tables or passages of the source.

Key:
[1] = target: T1, C. muris cytosolic leucyl-tRNA synthetase (CmLeuRS) editing domain (Cryptosporidium muris, UniProt B6AA20); assay: ITC; crystal structure ([…] Å); type: binding
T1 construct: gene CMU_041310; connective polypeptide domain (CP1) residues 254 to 541

[2] = target: T1, C. muris cytosolic leucyl-tRNA synthetase (CmLeuRS) editing domain; assay: ITC; crystal structure ([…] Å); type: binding; remark: listed apart in the source

T1 sequence (B6AA20 entry or part of it): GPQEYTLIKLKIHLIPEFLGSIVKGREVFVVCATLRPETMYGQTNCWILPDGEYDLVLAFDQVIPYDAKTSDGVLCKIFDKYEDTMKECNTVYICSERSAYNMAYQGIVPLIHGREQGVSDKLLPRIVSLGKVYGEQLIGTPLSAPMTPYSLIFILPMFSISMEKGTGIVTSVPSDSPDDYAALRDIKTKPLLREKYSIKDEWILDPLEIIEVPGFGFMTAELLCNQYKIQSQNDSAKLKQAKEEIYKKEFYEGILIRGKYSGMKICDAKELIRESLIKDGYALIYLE

Row | SMILES | Kd [1] [µM] | Kd [2] [µM]
1 | CCC[C@H](N)C(=O)N[C@@H]1[C@H](O)[C@@H](CO)O[C@H]1n1cnc2c(N)ncnc21 [Nva2AA, 2-(L-norvalyl)amino-2-deoxyadenosine] | 213 | 
2 | CC[C@H](C)[C@H](N)C(=O)N[C@@H]1[C@H](O)[C@@H](CO)O[C@H]1n1cnc2c(N)ncnc21 [Ile2AA, 2-(L-isoleucyl)amino-2-deoxyadenosine] |  | 215
